Columns and labels:
Botrytis cinerea [1] = assay: Antifungal activity against Botryotinia fuckeliana in cucumber plant at 281 g/ha treated 2 times in 6 days interval measured after 7 days last treatment relative to control; assay type: functional
Oryctolagus cuniculus [2] = species on record: Oryctolagus cuniculus; assay: Toxicity in Oryctolagus cuniculus (rabbit) assessed as skin irritation; assay type: organism-based; conditions: in vivo
[3] = Acute dermal toxicity in Rattus norvegicus (rat); assay type: organism-based, Skin of body; conditions: in vivo, topical or ocular
Oryctolagus cuniculus [4] = species on record: Oryctolagus cuniculus; assay: Toxicity in Oryctolagus cuniculus (rabbit) assessed as eye irritation; assay type: organism-based; conditions: in vivo
[5] = Biodistribution in Gossypium hirsutum (cotton) plant leaf at 500 mg/L after 48 hr; assay type: ADME, organism-based; conditions: read-out: Drug uptake
[6] = Acute oral toxicity in Rattus norvegicus (rat); assay type: organism-based; conditions: in vivo
[7] = Biodistribution in Gossypium hirsutum (cotton) plant leaf at 500 mg/L after 36 hr; assay type: ADME, organism-based; conditions: read-out: Drug uptake
[8] = Biodistribution in Gossypium hirsutum (cotton) plant leaf at 500 mg/L after 16 hr; assay type: ADME, organism-based; conditions: read-out: Drug uptake
[9] = Biodistribution in Gossypium hirsutum (cotton) plant leaf at 500 mg/L after 24 hr; assay type: ADME, organism-based; conditions: read-out: Drug uptake
[10] = Biodistribution in Gossypium hirsutum (cotton) plant leaf at 500 mg/L after 8 hr; assay type: ADME, organism-based; conditions: read-out: Drug uptake
[11] = Biodistribution in Gossypium hirsutum (cotton) plant stem at 500 mg/L after 48 hr; assay type: ADME, organism-based; conditions: read-out: Drug uptake
[12] = Biodistribution in Gossypium hirsutum (cotton) plant leaf at 500 mg/L after 4 hr; assay type: ADME, organism-based; conditions: read-out: Drug uptake
[13] = Biodistribution in Gossypium hirsutum (cotton) plant stem at 500 mg/L after 24 hr; assay type: ADME, organism-based; conditions: read-out: Drug uptake
[14] = Biodistribution in Gossypium hirsutum (cotton) plant stem at 500 mg/L after 36 hr; assay type: ADME, organism-based; conditions: read-out: Drug uptake
[15] = Biodistribution in Gossypium hirsutum (cotton) plant stem at 500 mg/L after 16 hr; assay type: ADME, organism-based; conditions: read-out: Drug uptake
[16] = Biodistribution in Gossypium hirsutum (cotton) plant stem at 500 mg/L after 8 hr; assay type: ADME, organism-based; conditions: read-out: Drug uptake
[17] = Biodistribution in Gossypium hirsutum (cotton) plant stem at 500 mg/L after 4 hr; assay type: ADME, organism-based; conditions: read-out: Drug uptake
[18] = Biodistribution in Gossypium hirsutum (cotton) plant root at 500 mg/L after 48 hr; assay type: ADME, organism-based; conditions: read-out: Drug uptake
[19] = Biodistribution in Gossypium hirsutum (cotton) plant root at 500 mg/L after 36 hr; assay type: ADME, organism-based; conditions: read-out: Drug uptake
[20] = Biodistribution in Gossypium hirsutum (cotton) plant root at 500 mg/L after 24 hr; assay type: ADME, organism-based; conditions: read-out: Drug uptake
[21] = Biodistribution in Gossypium hirsutum (cotton) plant root at 500 mg/L after 16 hr; assay type: ADME, organism-based; conditions: read-out: Drug uptake
[22] = Biodistribution in Gossypium hirsutum (cotton) plant root at 500 mg/L after 8 hr; assay type: ADME, organism-based; conditions: read-out: Drug uptake
[23] = Biodistribution in Gossypium hirsutum (cotton) plant root at 500 mg/L after 4 hr; assay type: ADME, organism-based; conditions: read-out: Drug uptake
Botrytis cinerea [24] = assay: Antifungal activity against Botryotinia fuckeliana in cucumber plant at 450 g/ha treated 2 times in 6 days interval measured after 7 days last treatment relative to control; assay type: functional
Botrytis cinerea [25] = assay: Antifungal activity against Botryotinia fuckeliana in seven to eight-leaf stage of tomato plant at 504 g/ha treated 24 hr before inoculation measured after 5 days relative to control; assay type: functional
Botrytis cinerea [26] = assay: Antifungal activity against Botryotinia fuckeliana in seven to eight-leaf stage of tomato plant at 315 g/ha treated 24 hr before inoculation measured after 5 days relative to control; assay type: functional
Botrytis cinerea [27] = assay: Antifungal activity against Botryotinia fuckeliana in seven to eight-leaf stage of tomato plant at 168 g/ha treated 24 hr before inoculation measured after 5 days relative to control; assay type: functional
Rhizoctonia solani [28] = assay: Antifungal activity against Rhizoctonia solani in five-leaf stage of cucumber growing soil at 504 g/ha treated 48 hr before inoculation measured after 6 days relative to control by pot culture test; assay type: functional
Rhizoctonia solani [29] = assay: Antifungal activity against Rhizoctonia solani in five-leaf stage of cucumber growing soil at 315 g/ha treated 48 hr before inoculation measured after 6 days relative to control by pot culture test; assay type: functional
Rhizoctonia solani [30] = assay: Antifungal activity against Rhizoctonia solani in five-leaf stage of cucumber growing soil at 168 g/ha treated 48 hr before inoculation measured after 6 days relative to control by pot culture test; assay type: functional
Botrytis cinerea [31] = assay: Antifungal activity against Botryotinia fuckeliana in seven to eight-leaf stage of tomato plant at 563 g/ha treated 24 hr before inoculation measured after 5 days relative to control; assay type: functional
Rhizoctonia solani [32] = assay: Antifungal activity against Rhizoctonia solani in five-leaf stage of cucumber growing soil at 450 g/ha treated 48 hr before inoculation measured after 6 days relative to control by pot culture test; assay type: functional

SMILES: CCCON=C1CCCCCCCCCCC(=O)NCCC1
- Activity (Botrytis cinerea [1]): 89.51%
- LD50 (Oryctolagus cuniculus [2]): Non-toxic
- LD50 [3]: > 2000 mg/kg
- LD50 (Oryctolagus cuniculus [4]): Toxic
- concentration at 48 h [5]: 2530 ng/g
- LD50 [6]: > 5000 mg/kg
- concentration at 36 h [7]: 2930 ng/g
- concentration at 16 h [8]: 330 ng/g
- concentration at 24 h [9]: 890 ng/g
- concentration at 8 h [10]: 110 ng/g
- concentration at 48 h [11]: 5120 ng/g
- concentration at 4 h [12]: 40 ng/g
- concentration at 24 h [13]: 4270 ng/g
- concentration at 36 h [14]: 8950 ng/g
- concentration at 16 h [15]: 2710 ng/g
- concentration at 8 h [16]: 870 ng/g
- concentration at 4 h [17]: 190 ng/g
- concentration at 48 h [18]: 137000 ng/g
- concentration at 36 h [19]: 116000 ng/g
- concentration at 24 h [20]: 98000 ng/g
- concentration at 16 h [21]: 97000 ng/g
- concentration at 8 h [22]: 66700 ng/g
- concentration at 4 h [23]: 54400 ng/g
- Activity (Botrytis cinerea [24]): 95.14%
- Activity (Botrytis cinerea [25]): 87.51%
- Activity (Botrytis cinerea [26]): 85.82%
- Activity (Botrytis cinerea [27]): 80.67%
- Activity (Rhizoctonia solani [28]): 73.59%
- Activity (Rhizoctonia solani [29]): 53.46%
- Activity (Rhizoctonia solani [30]): 38.99%

SMILES: CC(C)NC(=O)N1CC(=O)N(c2cc(Cl)cc(Cl)c2)C1=O [IPRODIONE]
- Activity (Botrytis cinerea [31]): 90.39%

SMILES: CN(C)C(=S)SSC(=S)N(C)C [THIRAM]
- Activity (Rhizoctonia solani [32]): 42.14%

— ChEMBL document CHEMBL3046961, “Fungicidal activity of 12-propoxyimino-1, 15-pentadecanlactam on selected crops” (Crop Prot, 2009)
